Assay results published in ChEMBL document CHEMBL4715697, “Synthesis and biological activity of benzamide DNA minor groove binders” (2016).

Assays:
[1] = tested on: Poly(dA-dT)oligonucleotide; assay: Binding affinity to minor groove of poly(dA:dT) dsDNA (unknown origin) assessed as change in melting temperature by UV-vis spectrophotometry based DNA melting assay; type: nucleic-acid assay
[2] = tested on: Poly(dA-dT)oligonucleotide; assay: Displacement of ethidium bromide from minor groove of poly(dA:dT) dsDNA (unknown origin) by fluorescence spectrophotometry; type: nucleic-acid assay
MOLT-4 = assay: Growth inhibition of human MOLT-4 cells assessed as cell growth at 0.01 uM incubated for 48 hrs by sulforhodamine B assay relative to control; type: functional; conditions: read-out: Activity
SF-268 = assay: Growth inhibition of human SF-268 cells assessed as cell growth at 0.01 uM incubated for 48 hrs by sulforhodamine B assay relative to control; type: functional; conditions: read-out: Activity
MDA-MB-435 [3] = assay: Growth inhibition of human MDA-MB-435 cells assessed as cell growth at 0.01 uM incubated for 48 hrs by sulforhodamine B assay relative to control; type: functional; conditions: read-out: Activity
SK-MEL-28 [4] = assay: Growth inhibition of human SK-MEL-28 cells assessed as cell growth at 0.01 uM incubated for 48 hrs by sulforhodamine B assay relative to control; type: functional; conditions: read-out: Activity
HCT-116 = assay: Growth inhibition of human HCT-116 cells assessed as cell growth at 0.1 uM incubated for 48 hrs by sulforhodamine B assay relative to control; type: functional; conditions: read-out: Activity
OVCAR-4 [5] = assay: Growth inhibition of human OVCAR-4 cells assessed as cell growth at 0.1 uM incubated for 48 hrs by sulforhodamine B assay relative to control; type: functional; conditions: read-out: Activity
CAKI-1 = assay: Growth inhibition of human CAKI-1 cells assessed as cell growth at 0.1 uM incubated for 48 hrs by sulforhodamine B assay relative to control; type: functional; conditions: read-out: Activity
SR [6] = assay: Growth inhibition of human SR cells assessed as cell growth at 1 uM incubated for 48 hrs by sulforhodamine B assay relative to control; type: functional; conditions: read-out: Activity
M14 = assay: Growth inhibition of human M14 cells assessed as cell growth at 1 uM incubated for 48 hrs by sulforhodamine B assay relative to control; type: functional; conditions: read-out: Activity
Hs-578T [7] = assay: Growth inhibition of human Hs-578T cells assessed as cell growth at 1 uM incubated for 48 hrs by sulforhodamine B assay relative to control; type: functional; conditions: read-out: Activity
SR [8] = assay: Growth inhibition of human SR cells assessed as cell growth at 10 uM incubated for 48 hrs by sulforhodamine B assay relative to control; type: functional; conditions: read-out: Activity
A549 = assay: Growth inhibition of human A549/ATCC cells assessed as cell growth at 10 uM incubated for 48 hrs by sulforhodamine B assay relative to control; type: functional; conditions: read-out: Activity
EKVX = assay: Growth inhibition of human EKVX cells assessed as cell growth at 10 uM incubated for 48 hrs by sulforhodamine B assay relative to control; type: functional; conditions: read-out: Activity
NCI-H226 = assay: Growth inhibition of human NCI-H226 cells assessed as cell growth at 10 uM incubated for 48 hrs by sulforhodamine B assay relative to control; type: functional; conditions: read-out: Activity
NCI-H460 = assay: Growth inhibition of human NCI-H460 cells assessed as cell growth at 10 uM incubated for 48 hrs by sulforhodamine B assay relative to control; type: functional; conditions: read-out: Activity
SW-620 = assay: Growth inhibition of human SW-620 cells assessed as cell growth at 10 uM incubated for 48 hrs by sulforhodamine B assay relative to control; type: functional; conditions: read-out: Activity
SF-295 [9] = assay: Growth inhibition of human SF-295 cells assessed as cell growth at 10 uM incubated for 48 hrs by sulforhodamine B assay relative to control; type: functional; conditions: read-out: Activity
LOX IMVI = assay: Growth inhibition of human LOX IMVI cells assessed as cell growth at 10 uM incubated for 48 hrs by sulforhodamine B assay relative to control; type: functional; conditions: read-out: Activity
SK-MEL-28 [10] = assay: Growth inhibition of human SK-MEL-28 cells assessed as cell growth at 10 uM incubated for 48 hrs by sulforhodamine B assay relative to control; type: functional; conditions: read-out: Activity
SK-MEL-5 = assay: Growth inhibition of human SK-MEL-5 cells assessed as cell growth at 10 uM incubated for 48 hrs by sulforhodamine B assay relative to control; type: functional; conditions: read-out: Activity
UACC-257 = assay: Growth inhibition of human UACC-257 cells assessed as cell growth at 10 uM incubated for 48 hrs by sulforhodamine B assay relative to control; type: functional; conditions: read-out: Activity
OVCAR-4 [11] = assay: Growth inhibition of human OVCAR-4 cells assessed as cell growth at 10 uM incubated for 48 hrs by sulforhodamine B assay relative to control; type: functional; conditions: read-out: Activity
NCI/ADR-RES [12] = assay: Growth inhibition of human NCI/ADR-RES cells assessed as cell growth at 10 uM incubated for 48 hrs by sulforhodamine B assay relative to control; type: functional; conditions: read-out: Activity
786-0 = assay: Growth inhibition of human 786-0 cells assessed as cell growth at 10 uM incubated for 48 hrs by sulforhodamine B assay relative to control; type: functional; conditions: read-out: Activity
A498 = assay: Growth inhibition of human A498 cells assessed as cell growth at 10 uM incubated for 48 hrs by sulforhodamine B assay relative to control; type: functional; conditions: read-out: Activity
SN12C = assay: Growth inhibition of human SN12C cells assessed as cell growth at 10 uM incubated for 48 hrs by sulforhodamine B assay relative to control; type: functional; conditions: read-out: Activity
TK-10 = assay: Growth inhibition of human TK-10 cells assessed as cell growth at 10 uM incubated for 48 hrs by sulforhodamine B assay relative to control; type: functional; conditions: read-out: Activity
MDA-MB-231 = assay: Growth inhibition of human MDA-MB-231 cells assessed as cell growth at 10 uM incubated for 48 hrs by sulforhodamine B assay relative to control; type: functional; conditions: read-out: Activity
Hs-578T [13] = assay: Growth inhibition of human Hs-578T cells assessed as cell growth at 10 uM incubated for 48 hrs by sulforhodamine B assay relative to control; type: functional; conditions: read-out: Activity
SF-295 [14] = assay: Growth inhibition of human SF-295 cells assessed as cell growth at 100 uM incubated for 48 hrs by sulforhodamine B assay relative to control; type: functional; conditions: read-out: Activity
MDA-MB-435 [15] = assay: Growth inhibition of human MDA-MB-435 cells assessed as cell growth at 100 uM incubated for 48 hrs by sulforhodamine B assay relative to control; type: functional; conditions: read-out: Activity
U-251 = assay: Growth inhibition of human U-251 cells incubated for 48 hrs by sulforhodamine B assay; type: functional
OVCAR-3 = assay: Growth inhibition of human OVCAR-3 cells incubated for 48 hrs by sulforhodamine B assay; type: functional
NCI/ADR-RES [16] = assay: Growth inhibition of human NCI/ADR-RES cells incubated for 48 hrs by sulforhodamine B assay; type: functional
ACHN = assay: Growth inhibition of human ACHN cells incubated for 48 hrs by sulforhodamine B assay; type: functional
[17] = read-out: LC50 (the source's name)
[18] = read-out: pLC50 (the source's name) (converted)

CC(=O)Nc1cc(CCl)cc(NC(=O)c2ccc(C(=O)Nc3cccc(NC(=O)CCCN(C)C)c3)cc2)c1
ΔTm [1]: 38.7 °C | C50 [2]: 9.9 µM | growth at 0.01 µM (MOLT-4): 102% | growth at 0.01 µM (SF-268): 100% | growth at 0.01 µM (MDA-MB-435 [3]): 96% | growth at 0.01 µM (SK-MEL-28 [4]): 98% | growth at 0.1 µM (HCT-116): 107% | growth at 0.1 µM (OVCAR-4 [5]): 94% | growth at 0.1 µM (CAKI-1): 98% | growth at 1 µM (SR [6]): 118% | growth at 1 µM (M14): 103% | growth at 1 µM (Hs-578T [7]): 109% | growth at 10 µM (SR [8]): 125% | growth at 10 µM (A549): 101% | growth at 10 µM (EKVX): 86% | growth at 10 µM (NCI-H226): 93% | growth at 10 µM (NCI-H460): 110% | growth at 10 µM (SW-620): 107% | growth at 10 µM (SF-295 [9]): 66% | growth at 10 µM (LOX IMVI): 92% | growth at 10 µM (SK-MEL-28 [10]): 96% | growth at 10 µM (SK-MEL-5): 93% | growth at 10 µM (UACC-257): 100% | growth at 10 µM (OVCAR-4 [11]): 99% | growth at 10 µM (NCI/ADR-RES [12]): 100% | growth at 10 µM (786-0): 107% | growth at 10 µM (A498): 87% | growth at 10 µM (SN12C): 105% | growth at 10 µM (TK-10): 106% | growth at 10 µM (MDA-MB-231): 106% | growth at 10 µM (Hs-578T [13]): 111% | growth at 100 µM (SF-295 [14]): 38% | growth at 100 µM (MDA-MB-435 [15]): 94% | GI50 (U-251; read-out: GI50): > 100 µM | CC50 (U-251; [17]): > 100 µM | TGI (U-251; read-out: TGI): > 100 µM | GI50 (U-251; read-out: pGI50 (converted)): > 100 µM | CC50 (U-251; [18]): > 100 µM | TGI (U-251; read-out: pTGI): > 100 µM | GI50 (OVCAR-3; read-out: GI50): > 100 µM | LC50 (50% lethal concentration) (OVCAR-3; read-out: LC50): > 100 µM | TGI (OVCAR-3; read-out: TGI): > 100 µM | GI50 (OVCAR-3; read-out: pGI50 (converted)): > 100 µM | LC50 (50% lethal concentration) (OVCAR-3; read-out: pLC50 (converted)): > 100 µM | TGI (OVCAR-3; read-out: pTGI): > 100 µM | GI50 (NCI/ADR-RES [16]; read-out: GI50): > 100 µM | CC50 (NCI/ADR-RES [16]; [17]): > 100 µM | TGI (NCI/ADR-RES [16]; read-out: TGI): > 100 µM | GI50 (NCI/ADR-RES [16]; read-out: pGI50 (converted)): > 100 µM | CC50 (NCI/ADR-RES [16]; [18]): > 100 µM | TGI (NCI/ADR-RES [16]; read-out: pTGI): > 100 µM | GI50 (ACHN; read-out: GI50): > 100 µM | CC50 (ACHN; [17]): > 100 µM | TGI (ACHN; read-out: TGI): > 100 µM | GI50 (ACHN; read-out: pGI50 (converted)): > 100 µM | CC50 (ACHN; [18]): > 100 µM | TGI (ACHN; read-out: pTGI): > 100 µM
